Key:
[1] = target: T1, c-Met (cytoplasmic domain) (Homo sapiens, UniProt P08581); experiment: c-Met Kinase Assay (same methods as for ALK, with modifications); type: biochemical; conditions: c-Met kinase inhibition, 1 μM ATP; read-out: cMet Activity
T1 construct: 10 ng/mL c-Met (cytoplasmic domain, Invitrogen Corporation #PV3143); purchased Invitrogen Corporation PV3143
Outline: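 Europium-labeled PT66 antibody (Eu-N1) detects substrate phosphorylation on wells coated with phospholipase C-γ at 10 μg/mL. The kinase, the cytoplasmic domain of c-Met at 10 ng/mL, starts the reaction, which proceeds 15 minutes at 37° C.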

[2] = target: T2, baculovirus-expressed ALK (Homo sapiens, UniProt Q9UM73); experiment: ALK Kinase Assay (ELISA-type, time-resolved fluorescence); type: biochemical; conditions: ALK kinase inhibition, 1 μM ATP; read-out: ALK Activity
T2 construct: host or cells: baculovirus expression system
T2 sequence (Q9UM73 19-1620): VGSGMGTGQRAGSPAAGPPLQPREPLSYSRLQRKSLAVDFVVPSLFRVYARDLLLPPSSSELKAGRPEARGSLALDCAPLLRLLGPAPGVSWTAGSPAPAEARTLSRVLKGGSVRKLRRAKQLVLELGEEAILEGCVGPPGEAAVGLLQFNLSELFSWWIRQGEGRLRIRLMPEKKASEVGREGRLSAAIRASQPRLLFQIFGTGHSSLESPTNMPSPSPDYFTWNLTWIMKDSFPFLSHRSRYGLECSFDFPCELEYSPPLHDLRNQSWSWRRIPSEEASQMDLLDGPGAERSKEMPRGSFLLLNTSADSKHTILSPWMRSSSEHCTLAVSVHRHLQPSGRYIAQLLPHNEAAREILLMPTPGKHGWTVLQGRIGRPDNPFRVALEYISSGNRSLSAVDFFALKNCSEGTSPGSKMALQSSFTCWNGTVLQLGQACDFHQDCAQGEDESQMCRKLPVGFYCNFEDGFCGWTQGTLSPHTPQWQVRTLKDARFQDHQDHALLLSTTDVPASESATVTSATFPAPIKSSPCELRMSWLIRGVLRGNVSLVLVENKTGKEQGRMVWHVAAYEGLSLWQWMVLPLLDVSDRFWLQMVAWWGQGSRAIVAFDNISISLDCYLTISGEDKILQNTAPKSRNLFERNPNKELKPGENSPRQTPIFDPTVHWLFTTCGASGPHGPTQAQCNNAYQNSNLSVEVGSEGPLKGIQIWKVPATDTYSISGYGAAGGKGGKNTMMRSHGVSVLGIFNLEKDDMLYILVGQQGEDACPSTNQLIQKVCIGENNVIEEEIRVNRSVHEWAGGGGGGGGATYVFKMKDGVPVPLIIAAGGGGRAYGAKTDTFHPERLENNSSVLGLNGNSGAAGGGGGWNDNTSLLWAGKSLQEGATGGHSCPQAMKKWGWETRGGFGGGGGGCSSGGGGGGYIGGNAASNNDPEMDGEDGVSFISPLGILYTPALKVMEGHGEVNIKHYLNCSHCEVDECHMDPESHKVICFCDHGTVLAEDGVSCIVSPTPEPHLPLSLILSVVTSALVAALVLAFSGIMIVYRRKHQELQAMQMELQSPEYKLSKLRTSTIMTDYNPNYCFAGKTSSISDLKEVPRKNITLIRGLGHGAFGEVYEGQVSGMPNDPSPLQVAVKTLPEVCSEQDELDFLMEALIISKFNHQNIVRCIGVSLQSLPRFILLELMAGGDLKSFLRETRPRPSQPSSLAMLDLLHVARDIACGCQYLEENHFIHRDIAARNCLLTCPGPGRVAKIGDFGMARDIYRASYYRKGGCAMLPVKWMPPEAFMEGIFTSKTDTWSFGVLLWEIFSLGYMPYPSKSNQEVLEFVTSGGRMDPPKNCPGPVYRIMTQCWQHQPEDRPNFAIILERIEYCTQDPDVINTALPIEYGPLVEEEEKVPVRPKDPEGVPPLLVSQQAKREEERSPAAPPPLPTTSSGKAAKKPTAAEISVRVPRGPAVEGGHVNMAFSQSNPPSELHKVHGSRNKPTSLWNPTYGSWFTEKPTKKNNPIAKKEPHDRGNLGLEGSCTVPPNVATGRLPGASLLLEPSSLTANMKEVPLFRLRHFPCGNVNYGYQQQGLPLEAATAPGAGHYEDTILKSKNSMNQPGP
Outline: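 Plates coated with phospholipase C-γ substrate (10 μg/mL in TBS); reaction started with 30 ng/ml ALK and run 15 min at 37° C. Phosphorylated substrate detected with Eu-N1-labeled PT66 antibody. IC50 from sigmoidal variable-slope fit of percent inhibition vs log concentration.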

T1 sequence (P08581 956-1390 limits assumed): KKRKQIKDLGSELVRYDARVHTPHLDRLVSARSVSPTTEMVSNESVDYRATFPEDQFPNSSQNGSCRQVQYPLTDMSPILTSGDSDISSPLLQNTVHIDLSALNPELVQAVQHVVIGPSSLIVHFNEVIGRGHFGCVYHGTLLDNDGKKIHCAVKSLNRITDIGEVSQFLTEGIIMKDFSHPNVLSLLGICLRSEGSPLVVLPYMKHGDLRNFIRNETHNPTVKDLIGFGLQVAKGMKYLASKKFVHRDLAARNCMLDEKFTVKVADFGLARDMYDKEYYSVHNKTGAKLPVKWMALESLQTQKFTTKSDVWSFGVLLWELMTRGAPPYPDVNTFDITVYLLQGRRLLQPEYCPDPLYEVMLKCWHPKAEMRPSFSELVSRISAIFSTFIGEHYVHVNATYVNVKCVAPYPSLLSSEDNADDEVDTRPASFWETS

CNC(=O)c1cccc(F)c1Nc1nc(Nc2ccc3c(c2)N(CCN(C)C)CCCC3(C)C)ncc1Cl [Example 1638, 2-{5-Chloro-2-[1-(2-dimethylamino-ethyl)-5,5-dimethyl-2,3,4,5-tetrahydro-1H-benzo[b]azepin-8-ylamino]-pyrimidin-4-ylamino}-3-fluoro-N-methyl-benzamide]
IC50 [1]: < 100 nM | IC50 [2]: < 100 nM

C#CCNC(=O)c1cccc(F)c1Nc1nc(Nc2ccc3c(c2)N(CCN(C)C)CCCC3(C)C)ncc1Cl [Example 1639, 2-{5-Chloro-2-[1-(2-dimethylamino-ethyl)-5,5-dimethyl-2,3,4,5-tetrahydro-1H-benzo[b]azepin-8-ylamino]-pyrimidin-4-ylamino}-3-fluoro-N-prop-2-ynyl-benzamide]
IC50 [1]: 100 to 1000 nM | IC50 [2]: < 100 nM

CN(C)CCN1CCCC(C)(C)c2ccc(Nc3ncc(Cl)c(N[C@H]4[C@@H](C(N)=O)[C@@H]5C=C[C@H]4C5)n3)cc21 [Example 1640, (1S,2S,3R,4R)-3-{5-Chloro-2-[1-(2-dimethylamino-ethyl)-5,5-dimethyl-2,3,4,5-tetrahydro-1H-benzo[b]azepin-8-ylamino]-pyrimidin-4-ylamino}-bicyclo[2.2.1]hept-5-ene-2-carboxylic acid amide]
IC50 [1]: < 100 nM | IC50 [2]: < 100 nM

COc1cc(N2CCOCC2)ccc1Nc1nc(Nc2ccc3c(c2)N(CCN(C)C)CCCC3(C)C)ncc1Cl [Example 1641, 5-Chloro-N*2*-[1-(2-dimethylamino-ethyl)-5,5-dimethyl-2,3,4,5-tetrahydro-1H-benzo[b]azepin-8-yl]-N*4*-(2-methoxy-4-morpholin-4-yl-phenyl)-pyrimidine-2,4-diamine]
IC50 [1]: 1000 to 10000 nM | IC50 [2]: < 100 nM

CCN1C(=O)C(NC(=O)C(F)(F)F)CC(C)(C)c2ccc(Nc3ncc(Cl)c(Nc4c(F)cccc4C(=O)NC)n3)cc21 (centres unmarked) [Example 1642, 2-{5-Chloro-2-[1-ethyl-5,5-dimethyl-2-oxo-3-(2,2,2-trifluoro-acetylamino)-2,3,4,5-tetrahydro-1H-benzo[b]azepin-8-ylamino]-pyrimidin-4-ylamino}-3-fluoro-N-methyl-benzamide]
IC50 [1]: < 100 nM | IC50 [2]: 100 to 1000 nM

CCN1C(=O)C(NC(C)=O)CC(C)(C)c2ccc(Nc3ncc(Cl)c(Nc4c(F)cccc4C(=O)NC)n3)cc21 (centres unmarked) [Example 1643, 2-[2-(3-Acetylamino-1-ethyl-5,5-dimethyl-2-oxo-2,3,4,5-tetrahydro-1H-benzo[b]azepin-8-ylamino)-5-chloro-pyrimidin-4-ylamino]-3-fluoro-N-methyl-benzamide]
IC50 [1]: < 100 nM | IC50 [2]: 100 to 1000 nM

CCN1C(=O)C(NC(=O)COC)CC(C)(C)c2ccc(Nc3ncc(Cl)c(Nc4c(F)cccc4C(=O)NC)n3)cc21 (centres unmarked) [Example 1644, 2-{5-Chloro-2-[1-ethyl-3-(2-methoxy-acetylamino)-5,5-dimethyl-2-oxo-2,3,4,5-tetrahydro-1H-benzo[b]azepin-8-ylamino]-pyrimidin-4-ylamino}-3-fluoro-N-methyl-benzamide]
IC50 [1]: < 100 nM | IC50 [2]: 100 to 1000 nM

COc1cc2c(cc1Nc1ncc(Cl)c(N[C@@H]3CCCC[C@H]3NS(C)(=O)=O)n1)NC(=O)CN(Cc1ccccc1)C2 [Example 1651, N-{(1R,2R)-2-[2-(4-Benzyl-7-methoxy-2-oxo-2,3,4,5-tetrahydro-1H-benzo[e][1,4]diazepin-8-ylamino)-5-chloro-pyrimidin-4-ylamino]-cyclohexyl}-methanesulfonamide]
IC50 [1]: > 10000 nM | IC50 [2]: < 100 nM

COc1cc2c(cc1Nc1ncc(Cl)c(NC3C4C=CC(C4)C3C(N)=O)n1)NC(=O)CN(Cc1ccccc1)C2 (centres unmarked) [Example 1652, 3-[2-(4-Benzyl-7-methoxy-2-oxo-2,3,4,5-tetrahydro-1H-benzo[e][1,4]diaz-epin-8-ylamino)-5-chloro-pyrimidin-4-ylamino]-bicyclo[2.2.1]hept-5-ene-2-carboxylic acid amide]
IC50 [1]: > 10000 nM | IC50 [2]: < 100 nM

CCNC(=O)c1ccccc1Nc1nc(Nc2cc3c(cc2OC)CN(Cc2ccccc2)CC(=O)N3)ncc1Cl [Example 1653, 2-[2-(4-Benzyl-7-methoxy-2-oxo-2,3,4,5-tetrahydro-1H-benzo[e][1,4]diazepin-8-ylamino)-5-chloro-pyrimidin-4-ylamino]-N-ethyl-benzamide]
IC50 [1]: 1000 to 10000 nM | IC50 [2]: < 100 nM

COc1ccc2c(c1Nc1ncc(Cl)c(N[C@@H]3CCCC[C@H]3NS(C)(=O)=O)n1)CN(Cc1ccccc1)CC(=O)N2 [Example 1654, N-{(1R,2R)-2-[2-(4-Benzyl-7-methoxy-2-oxo-2,3,4,5-tetrahydro-1H-benzo[e][1,4]diazepin-6-ylamino)-5-chloro-pyrimidin-4-ylamino]-cyclohexyl}-methanesulfonamide]
IC50 [1]: > 10000 nM | IC50 [2]: 1000 to 10000 nM

COc1cc2c(cc1Nc1ncc(Cl)c(N[C@@H]3CCCC[C@H]3NS(C)(=O)=O)n1)NC(=O)CNC2 [Example 1655, N-{(1R,2R)-2-[5-Chloro-2-(7-methoxy-2-oxo-2,3,4,5-tetrahydro-1H-benzo[e][1,4]diazepin-8-ylamino)-pyrimidin-4-ylamino]-cyclohexyl}-methanesulfonamide]
IC50 [1]: > 10000 nM | IC50 [2]: < 100 nM

COc1cc2c(cc1Nc1ncc(Cl)c(Nc3ccccc3S(=O)(=O)N(C)C)n1)N(CC(=O)N(C)C)C(=O)CN(CC(=O)N(C)C)C2 [Example 1656, 2-{8-[5-Chloro-4-(2-dimethylsulfamoyl-phenylamino)-pyrimidin-2-ylamino]-1-dimethylcarbamoylmethyl-7-methoxy-2-oxo-1,2,3,5-tetrahydro-benzo[e][1,4]diazepin-4-yl}-N,N-dimethyl-acetamide]
IC50 [1]: > 10000 nM | IC50 [2]: 100 to 1000 nM

COc1cc2c(cc1Nc1ncc(Cl)c(N[C@@H]3CCCC[C@H]3NS(C)(=O)=O)n1)NC(=O)CN(C(C)=O)C2 [Example 1657, N-{(1R,2R)-2-[2-(4-Acetyl-7-methoxy-2-oxo-2,3,4,5-tetrahydro-1H-benzo[e][1,4]di-azepin-8-ylamino)-5-chloro-pyrimidin-4-ylamino]-cyclohexyl}-methanesulfonamide]
IC50 [1]: > 10000 nM | IC50 [2]: < 100 nM

CCN1CC(=O)Nc2cc(Nc3ncc(Cl)c(N[C@@H]4CCCC[C@H]4NS(C)(=O)=O)n3)c(OC)cc2C1 [Example 1658, N-{(1R,2R)-2-[5-Chloro-2-(4-ethyl-7-methoxy-2-oxo-2,3,4,5-tetrahydro-1H-benzo[e][1,4]diazepin-8-ylamino)-pyrimidin-4-ylamino]-cyclohexyl}-methane-sulfonamide]
IC50 [1]: > 10000 nM | IC50 [2]: < 100 nM

CCN1CC(=O)Nc2cc(Nc3ncc(Cl)c(Nc4ccccc4S(=O)(=O)N(C)C)n3)c(OC)cc2C1 [Example 1659, 2-[5-Chloro-2-(4-ethyl-7-methoxy-2-oxo-2,3,4,5-tetrahydro-1H-benzo[e][1,4]diazepin-8-ylamino)-pyrimidin-4-ylamino]-N,N-dimethyl-benzenesulfonamide]
IC50 [1]: > 10000 nM | IC50 [2]: < 100 nM

CCN1CC(=O)Nc2cc(Nc3ncc(Cl)c(Nc4ccccc4S(=O)(=O)C(C)C)n3)c(OC)cc2C1 [Example 1660, 8-{5-Chloro-4-[2-(propane-2-sulfonyl)-phenylamino]-pyrimidin-2-ylamino}-4-ethyl-7-methoxy-1,3,4,5-tetrahydro-benzo[e][1,4]diazepin-2-one]
IC50 [1]: > 10000 nM | IC50 [2]: < 100 nM

CCN1CC(=O)Nc2cc(Nc3ncc(Cl)c(Nc4ccc(N5CCOCC5)cc4OC)n3)c(OC)cc2C1 [Example 1661, 8-[5-Chloro-4-(2-methoxy-4-morpholin-4-yl-phenylamino)-pyrimidin-2-ylamino]-4-ethyl-7-methoxy-1,3,4,5-tetrahydro-benzo[e][1,4]diazepin-2-one]
IC50 [1]: > 10000 nM | IC50 [2]: < 100 nM

CCN1CC(=O)Nc2cc(Nc3ncc(Cl)c(Nc4ccc(OC)cc4-n4cccn4)n3)c(OC)cc2C1 [Example 1662, 8-[5-Chloro-4-(4-methoxy-2-pyrazol-1-yl-phenylamino)-pyrimidin-2-ylamino]-4-ethyl-7-methoxy-1,3,4,5-tetrahydro-benzo[e][1,4]diazepin-2-one]
IC50 [1]: > 10000 nM | IC50 [2]: < 100 nM

CCN1CC(=O)Nc2cc(Nc3ncc(Cl)c(N[C@H]4[C@@H](C(N)=O)[C@@H]5C=C[C@H]4C5)n3)c(OC)cc2C1 [Example 1663, (1S,2S,3R,4R)-3-[5-Chloro-2-(4-ethyl-7-methoxy-2-oxo-2,3,4,5-tetrahydro-1H-benzo[e][1,4]diazepin-8-ylamino)-pyrimidin-4-ylamino]-bicyclo-[2.2.1]hept-5-ene-2-carboxylic acid amide]
IC50 [1]: > 10000 nM | IC50 [2]: < 100 nM

COCCN1CC(=O)Nc2cc(Nc3ncc(Cl)c(N[C@@H]4CCCC[C@H]4NS(C)(=O)=O)n3)c(OC)cc2C1 [Example 1664, N-(1R,2R)-(2-{5-Chloro-2-[7-methoxy-4-(2-methoxy-ethyl)-2-oxo-2,3,4,5-tetrahydro-1H-benzo[e][1,4]diazepin-8-ylamino]-pyrimidin-4-ylamino}-cyclohexyl)-methanesulfonamide]
IC50 [1]: > 10000 nM | IC50 [2]: < 100 nM

COCCN1CC(=O)Nc2cc(Nc3ncc(Cl)c(N[C@H]4[C@@H](C(N)=O)[C@@H]5C=C[C@H]4C5)n3)c(OC)cc2C1 [Example 1665, (1S,2S,3R,4R)-3-{5-Chloro-2-[7-methoxy-4-(2-methoxy-ethyl)-2-oxo-2,3,4,5-tetrahydro-1H-benzo[e][1,4]diazepin-8-ylamino]-pyrimidin-4-ylamino}-bicyclo[2.2.1]hept-5-ene-2-carboxylic acid amide]
IC50 [1]: > 10000 nM | IC50 [2]: < 100 nM

From patent publication US8148391B2 (Cephalon, Inc., priority 2006, dated 2012)
